The values below come from US20040138272A1, “1,4-Substituted cyclohexane derivatives” (priority 2002, published 2004).

Molecules are shown by their SMILES. “Also recorded” adds a separate entry of the source. Like-named read-outs stand apart in the source and are kept apart here.

Series [1] concerns the target glycogen synthatase kinase 3 beta (GSKB) (Homo sapiens, UniProt P49841). Put plainly: GSK B kinase activity of compounds (FIG. 10). Format: biochemical. The conditions noted are these: 10 uM.
The conditions of series [2]: cited from earlier work.
A further series deals with PRK2 (Homo sapiens, UniProt Q16513). To be noted: cited from earlier work.
Chain of PRK2 (Q16513 whole entry): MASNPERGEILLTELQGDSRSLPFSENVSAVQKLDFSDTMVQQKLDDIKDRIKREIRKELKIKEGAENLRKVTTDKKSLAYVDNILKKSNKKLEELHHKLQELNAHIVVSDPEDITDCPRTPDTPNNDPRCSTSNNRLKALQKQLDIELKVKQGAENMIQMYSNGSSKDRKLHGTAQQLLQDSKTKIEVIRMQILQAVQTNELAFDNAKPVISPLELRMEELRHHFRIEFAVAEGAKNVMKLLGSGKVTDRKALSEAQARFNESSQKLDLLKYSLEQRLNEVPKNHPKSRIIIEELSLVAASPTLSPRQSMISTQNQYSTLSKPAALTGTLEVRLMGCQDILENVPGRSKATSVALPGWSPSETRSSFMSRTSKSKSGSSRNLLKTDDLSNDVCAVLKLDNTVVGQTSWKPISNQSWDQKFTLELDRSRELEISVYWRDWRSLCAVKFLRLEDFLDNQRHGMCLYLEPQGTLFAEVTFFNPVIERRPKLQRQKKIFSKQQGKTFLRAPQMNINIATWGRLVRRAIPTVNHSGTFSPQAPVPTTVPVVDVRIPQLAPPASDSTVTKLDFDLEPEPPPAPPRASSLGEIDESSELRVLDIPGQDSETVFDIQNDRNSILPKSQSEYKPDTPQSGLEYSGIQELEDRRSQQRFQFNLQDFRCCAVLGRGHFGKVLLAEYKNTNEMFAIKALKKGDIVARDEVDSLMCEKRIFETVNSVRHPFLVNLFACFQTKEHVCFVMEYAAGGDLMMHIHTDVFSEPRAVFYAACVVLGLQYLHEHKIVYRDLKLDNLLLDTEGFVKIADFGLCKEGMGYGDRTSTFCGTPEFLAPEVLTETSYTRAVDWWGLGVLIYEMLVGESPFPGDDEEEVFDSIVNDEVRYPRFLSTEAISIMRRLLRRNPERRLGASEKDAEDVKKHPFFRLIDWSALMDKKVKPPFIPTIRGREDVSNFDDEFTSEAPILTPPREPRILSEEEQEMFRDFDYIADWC
For series [3] the following is noted: rat, in vivo, po, 30 mg/kg; cited from earlier work.
The next series has as its target MSK1 (Homo sapiens, UniProt O75582). To be noted: cited from earlier work.
The target of the next series is MAPKAP-K1b (Oryctolagus cuniculus, UniProt A0A5F9C4L9). To be noted: cited from earlier work.
Chain of MAPKAP-K1b (A0A5F9C4L9 1-740): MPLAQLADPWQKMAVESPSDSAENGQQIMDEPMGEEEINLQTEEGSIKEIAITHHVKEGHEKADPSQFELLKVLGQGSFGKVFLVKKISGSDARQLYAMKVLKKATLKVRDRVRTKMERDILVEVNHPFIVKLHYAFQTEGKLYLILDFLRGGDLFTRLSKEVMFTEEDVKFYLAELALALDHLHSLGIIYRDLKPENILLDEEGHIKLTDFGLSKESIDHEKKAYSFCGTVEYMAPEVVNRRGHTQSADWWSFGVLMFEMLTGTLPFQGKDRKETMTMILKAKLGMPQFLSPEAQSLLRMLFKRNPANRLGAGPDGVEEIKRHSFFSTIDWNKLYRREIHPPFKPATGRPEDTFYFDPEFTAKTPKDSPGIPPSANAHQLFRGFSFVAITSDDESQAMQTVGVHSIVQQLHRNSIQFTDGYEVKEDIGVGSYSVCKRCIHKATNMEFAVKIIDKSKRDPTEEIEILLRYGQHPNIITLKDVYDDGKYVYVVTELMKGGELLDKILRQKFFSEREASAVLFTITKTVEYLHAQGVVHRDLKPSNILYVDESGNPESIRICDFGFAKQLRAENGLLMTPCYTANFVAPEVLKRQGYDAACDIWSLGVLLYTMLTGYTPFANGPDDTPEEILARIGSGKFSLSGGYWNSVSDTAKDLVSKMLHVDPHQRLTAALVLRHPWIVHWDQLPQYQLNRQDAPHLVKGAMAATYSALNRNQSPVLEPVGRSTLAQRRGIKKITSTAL
The next series relates to PHK. To be noted: cited from earlier work.
The test system of series [4] is PC12 cells on MAG substrates. In words: Bioassay of PC12 neurite growth on growth inhibitory myelin-associated glycoprotein (MAG) substrates. Format: cell-based. The conditions noted are these: Dihydrochloride; for neurite outgrowth on inhibitory MAG substrates (FIG. 4): PC12 cells, 0.31, 3.1 or 31 uM. The method, then:
PC-12 cells (ATCC CRL-1721) typically extend neurites in response to NGF, but when plated on inhibitory substrates, this outgrowth is inhibited and the cells remain round. We tested the ability of the new compound to grow neurites when plated on inhibitory substrates.
We used PC12 cells obtained from the American Type Culture Collection. PC12 cells were grown in Dulbecco's modified eagle's medium (DMEM) with 10% horse serum and 5% fetal bovine serum. To test compounds for the ability to overcome growth inhibition, PC12 cells were collected by detaching with trypsin-EDTA (0.05%), then resuspended in DMEM, 1% FBS, and 50 ng/ml nerve growth factor before plating on MAG substrates. MAG used for substrates was purified from myelin after extraction in 1% octylglucoside and separation by ion exchange chromatography (McKerracher et al. 1994, Neuron 13:805-811). Test substrates were prepared as uniform substrates in 96-well plates by drying overnight in the laminar flow hood (Nalge Nunc, Naperville, Ill.). Plates were precoated with polylysine (100 μg/ml) for 3 hours at 37° C., then washed and dried approx. 1 hour. MAG was prepared as a substrate by drying down 8 μg of protein overnight. After plating on the MAG substrate, the cells were grown at 37 C. for two days in the presence or absence of test compound (BA1003, BA1016, BA1017) to allow neurite growth. Polylysine substrates were used as a positive control. Quantitative analysis of neurite outgrowth was with the aid of Northern Eclipse software (Empix Imaging, Mississauga, Ontario). Data analysis and statistics were with Microsoft Excel.
Referring to FIG. 4 there is shown a graph illustrative of experiments performed in triplicate testing the ability of BA-1003, BA-1016 and BA-1017 to overcome growth inhibition by MAG. PC12 cells were plated on MAG substrates alone (MAG) or MAG substrates in the presence of 0.31 uM, 3.1 um or 31 um concentrations of the test compound. The numbers of neurons that grew neurites were scored, and are shown as the percentage of neurite growth.

In series [5] the test system is NG108-15 neuronal cell line. Put plainly: Rapid bioassay of neurite growth in NG108-15 cells. It counts as cell-based. The conditions noted are these: NG108 cells, 3.1 to 31 μM. Here is the method:
When neurons are placed on inhibitory substrates in tissue culture, the neurons remain rounded. When an effective Rho kinase inhibitor is added to the neurons, the neurons are able to grow neurites on myelin substrates. The time that it takes for neurons to grow neurites after the addition of a Rho kinase inhibitor is about the same as the time that it takes for neurons to grow neurites if the neurons had been plated on growth permissive substrate such as laminin or polylysine, which time is typically 1 to 2 days in cell culture. An assessment of resulting neurite growth can be scored by visual means. If needed, a quantitative assessment of neurite growth can be performed. This involves measuring after a time such as 1 to 2 days the neurite length a) in control cultures where neurons are plated on myelin substrates and left untreated with Rho kinase inhibitor for such time, b) in positive control cultures, wherein for example neurons are plated on polylysine but left untreated with Rho kinase inhibitor for such time, and c) in cultures analogous to a) and b) that are treated with different concentrations of a Rho kinase inhibitor for such time. […] In this assay, NG108 cells are plated on plastic in the presence or absence of the test substance (a Rho kinase inhibitor). […] The relative efficacy can be assessed by fixing the cultures 5 hours after plating, and counting the number of cells that have grown neurites.
A rapid bioassay is used to determine the effect of a test compounds on the stimulation of neurite growth in vitro. A neuronal cell line, NG108-15 (ATCC HB-12317), is maintained in culture in Dulbecco's minimal essential medium (DMEM) supplemented with 10% fetal bovine serum, Penicillin/Streptomycin and HAT supplement (Gibco/BRL). For the bioassay, the cells are collected by trypsinisation and ressuspended in DMEM supplemented with 5% FBS, Penicillin/Streptomycin, HAT supplement and 0.25 mg/ml cAMP, adjusted to 1.0×10^4 cells/ml. The cells are plated into wells of a 96 well plate at 100 μls (1000 cells)/well. Cells are incubated 4 h at 37° C. and 5% CO2 in presence of small molecules or cethrin at a concentration of 1000 cells per well of a 96-wells plate in a final volume of 100 ul.
After incubation, cells are fixed by adding […] 16% PFA and 5.4 μls 2.5% glutaraldehyde to the media in each well. The wells are stained with cresyl violet 0.05% , 100 μls/well for 15 min. Cells with neurites (length≧one cell body) are counted using an inverted light microscope. The % neurite outgrowth is determined by calculating the number of cells with neurites over the total number of counted cells.

For a further series, the target named is T1, ROCK II (Rattus norvegicus, UniProt Q62868).
T1 construct: purchased Upstate (Lake Placid, N.Y.)
T1 sequence (Q62868 11-550 limits assumed): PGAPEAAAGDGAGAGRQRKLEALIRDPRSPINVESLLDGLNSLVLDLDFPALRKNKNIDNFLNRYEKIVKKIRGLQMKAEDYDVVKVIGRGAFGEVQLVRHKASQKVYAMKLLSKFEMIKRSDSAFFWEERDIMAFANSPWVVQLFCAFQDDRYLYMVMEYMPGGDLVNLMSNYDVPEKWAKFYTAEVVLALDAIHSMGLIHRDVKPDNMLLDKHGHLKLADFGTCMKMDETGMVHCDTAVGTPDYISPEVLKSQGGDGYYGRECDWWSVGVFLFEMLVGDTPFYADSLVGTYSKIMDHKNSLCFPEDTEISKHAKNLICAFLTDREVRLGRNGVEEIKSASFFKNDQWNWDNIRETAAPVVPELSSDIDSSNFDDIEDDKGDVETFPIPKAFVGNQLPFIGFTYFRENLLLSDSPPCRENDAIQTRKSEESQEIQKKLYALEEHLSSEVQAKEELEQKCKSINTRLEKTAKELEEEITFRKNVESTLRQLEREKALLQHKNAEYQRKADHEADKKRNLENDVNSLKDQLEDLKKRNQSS
Put plainly: ROCK II kinase assay with [γ-32P] ATP and myelin basic protein substrate (FIG. 3). Format: biochemical. To be noted: 100 μM ATP, 30 min at 30° C. The source says:
The ability of compounds to inhibit ROK activity may be tested in a cell-free assay system using recombinant ROK, radiaoactive ATP, and Myelin basic Protein (MBP). MBP is a highly phosphorylated protein, is inexpensive to buy in purified form, is phosphorylated by ROK, and is used as the assay substrate for phosphorylation. Recombinant ROK has been prepared from a number of sources. Overexpression in mammalian cells provides a convenient, easily renewed source of ROK activity. Measurement of Rho-associated kinase (ROK) activity is important to determine the potency of novel inhibitors. MBP is a substrate for ROK and a number of other protein kinases, making it useful both to quantitate ROK activity and to indicate the potency and specificity of novel inhibitors for ROK. […]
ROCK II was assayed in 20 mM MOPS, pH 7.2, 25 mM β-glycerophosphate, 5 mM EGTA, 1 mM sodium orthovanadate, 1 mM dithiothreitol with dephosphorylated myelin basic protein (MBP, 0.2 mg/ml) as substrate with or without BA-1016 or BA-1017. […] Assays were initiated by adding Mg^2+/ATP and terminated by spotting 40 μl of each reaction onto phosphocellulose paper (P81 paper, Whatman), followed by washes in 0.75% phosphoric acid to remove ATP and then dried, put in scintillation cocktail and counted to measure ^32P incorporation. Radioactivity is measured using a scintillation counter. […]

Chain of glycogen synthatase kinase 3 beta (GSKB) (P49841 whole entry): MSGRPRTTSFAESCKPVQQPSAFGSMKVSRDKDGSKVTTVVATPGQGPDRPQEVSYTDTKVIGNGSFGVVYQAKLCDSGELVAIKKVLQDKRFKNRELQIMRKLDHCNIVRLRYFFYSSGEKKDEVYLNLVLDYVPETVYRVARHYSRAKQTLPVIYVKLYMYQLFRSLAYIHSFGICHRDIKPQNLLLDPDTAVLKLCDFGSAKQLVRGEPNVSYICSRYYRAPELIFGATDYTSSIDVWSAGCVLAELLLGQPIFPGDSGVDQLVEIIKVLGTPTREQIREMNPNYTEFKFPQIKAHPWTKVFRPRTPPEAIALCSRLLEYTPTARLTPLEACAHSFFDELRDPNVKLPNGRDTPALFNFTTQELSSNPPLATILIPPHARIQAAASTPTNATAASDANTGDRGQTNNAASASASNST
Chain of MSK1 (O75582 whole entry, species assumed): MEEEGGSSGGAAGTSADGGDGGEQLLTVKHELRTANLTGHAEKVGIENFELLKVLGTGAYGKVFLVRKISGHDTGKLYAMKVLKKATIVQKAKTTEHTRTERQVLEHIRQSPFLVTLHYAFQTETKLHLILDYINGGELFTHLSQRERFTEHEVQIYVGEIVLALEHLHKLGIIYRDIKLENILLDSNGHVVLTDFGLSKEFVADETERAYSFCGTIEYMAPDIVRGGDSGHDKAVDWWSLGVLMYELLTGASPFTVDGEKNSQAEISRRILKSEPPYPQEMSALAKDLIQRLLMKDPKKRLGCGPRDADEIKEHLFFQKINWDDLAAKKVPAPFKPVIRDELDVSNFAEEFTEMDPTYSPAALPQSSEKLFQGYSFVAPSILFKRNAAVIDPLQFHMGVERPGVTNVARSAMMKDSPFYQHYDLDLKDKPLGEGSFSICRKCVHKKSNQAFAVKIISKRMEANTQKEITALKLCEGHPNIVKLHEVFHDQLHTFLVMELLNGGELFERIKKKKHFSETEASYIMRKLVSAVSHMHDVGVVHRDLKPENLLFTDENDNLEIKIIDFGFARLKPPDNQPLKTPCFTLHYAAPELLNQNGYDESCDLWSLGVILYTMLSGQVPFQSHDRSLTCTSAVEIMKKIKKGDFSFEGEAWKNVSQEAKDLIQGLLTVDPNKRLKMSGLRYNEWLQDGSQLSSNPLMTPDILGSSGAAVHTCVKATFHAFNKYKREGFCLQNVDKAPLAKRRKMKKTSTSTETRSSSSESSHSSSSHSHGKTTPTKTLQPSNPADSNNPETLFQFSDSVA

With `C=CC[C@@H](NC)[C@H]1CC[C@H](C(=O)Nc2ccncc2)CC1.Cl.Cl` (relative stereo) [BA-1028, (R,S)-trans-4-[(N′-methyl)-but-3′-en-1′-amino]-N-(4″-pyridyl)cyclohexane Carboxamide Dihydrochloride], in [1], the “activity towards GSKB (FIG. 10)” value is on record as “can exert activity”.

`C=CC[C@@H](NCc1ccccc1)[C@H]1CC[C@H](C(=O)Nc2ccncc2)CC1.Cl.Cl` (relative stereo) [BA-1029, (R,S)-trans-4-[(N′-benzyl)-but-3′-en-1′-amino]-N-(4″-pyridyl)cyclohexane Carboxamide Dihydrochloride]: the “activity towards GSKB (FIG. 10)” value in series [1] is given as “can exert activity”.

Consider `C[C@@H](N)[C@H]1CC[C@H](C(=O)Nc2ccncc2)CC1.Cl.Cl` (relative stereo) [Y-27632, (R)-trans-4-(Ethan-1′-amino)-N-(4″-pyridyl)cyclohexane Carboxamide Dihydrochloride], for which the blood pressure result is “reduces blood pressure” in [2] (hypertensive rats) and “does not affect blood pressure” in series [2] (normal rats). Besides, the “inhibition of PRK2” value on PRK2 was “inhibits”. Besides, the toxicity entry in series [3] is recorded as “not toxic”. Besides, the “inhibition of MSK1” value at MSK1 was “inhibits”. On MAPKAP-K1b, the “inhibition of MAPKAP-K1b” value was “inhibits”. Also, in the series with PHK, the “inhibition of PHK” value is listed as “inhibits”.

Turning to `C=CC[C@@H](N)[C@H]1CC[C@H](C(=O)Nc2ccncc2)CC1.Cl.Cl` (stereo in doubt) [BA-1003], the “neurite outgrowth on inhibitory MAG substrates (FIG. 4)” value in [4] was “can promote neurite outgrowth; also recorded: able to overcome growth inhibition by MAG”. The “neurite outgrowth (FIG. 2)” value in [5] was “promote neurite outgrowth”.

As for `C=CC[C@H](N)[C@H]1CC[C@H](C(=O)Nc2ccncc2)CC1.Cl.Cl` (stereo in doubt) [BA-1017], the “neurite outgrowth on MAG substrates at the lowest concentration tested” value in series [4] (PC12 cells, 0.31 uM) is “better neurite outgrowth; also recorded: effective”. In addition, in [4], the “neurite outgrowth on inhibitory MAG substrates (FIG. 4)” value is “can promote neurite outgrowth; also recorded: able to overcome growth inhibition by MAG”. On ROCK II, the “inhibition of ROCKII activity (FIG. 3)” value is recorded as “inhibition of ROCKII activity”. Besides, the “neurite outgrowth (FIG. 2)” value in [5] is given as “promote neurite outgrowth”.

For `Cl.Cl.O=C(Nc1ccncc1)[C@H]1CC[C@H](NNCC(c2ccccc2)c2ccccc2)CC1` [BA-1034, trans-4-{N′-[2′,2′-(Diphenyl)ethyl]hydrazino}-N-(4′″-pyridyl)cyclohexane Carboxamide Dihydrochloride], the “activity towards GSKB (FIG. 10)” value in [1] was “can exert activity”.

With `Cl.Cl.O=C(Nc1ccncc1)[C@H]1CC[C@H](NNCc2ccc(OCc3ccccc3)cc2)CC1` [BA-1035, trans-4-{N′-[4′-(Benzyloxy)benzyl]hydrazino}-N-(4′″-pyridyl)cyclohexane Carboxamide Dihydrochloride], the “activity towards GSKB (FIG. 10)” value in series [1] was “can exert activity”.

In the case of `Cl.Cl.O=C(Nc1ccncc1)[C@H]1CC[C@H](NNCC2CCCCC2)CC1` [BA-1036, trans-4-{N′-[(Cyclohexyl)methyl]hydrazino}-N-(4′″-pyridyl)cyclohexane Carboxamide Dihydrochloride], the “activity towards GSKB (FIG. 10)” value in [1] was “can exert activity”.

Regarding `Cl.Cl.O=C(Nc1ccncc1)[C@H]1CC[C@H](NNC/C=C/c2ccccc2)CC1` [BA-1038, 1,4-trans-2′,3′-trans-4-{N′-[3′-(Phenyl)prop-2′-enyl]hydrazino}-N-(4′″-pyridyl)cyclohexane Carboxamide Dihydrochloride], the “activity towards GSKB (FIG. 10)” value in series [1] was “can exert activity”.
